The values below come from patent US20250170248A1, “SMARCA DEGRADERS AND USES THEREOF” (Kymera Therapeutics, Inc., priority 2021, published 2025).

Common to all, as to format: cell-based
For experiment [1], the target named is T1, SMARCA2 (Homo sapiens, UniProt P51531). Kind of experiment: MSD SMARCA2 degradation in A549 cell line. The following applies: for Dmax: A549, A549 cells; for Dmax / DC50: 24 h; for DC50 / SMARCA2 MSD A549 degradation 24 h: Average Dmax %: A549 cells; for DC50: read-out: SMARCA2 MSD A549 degradation 24 h: Average external-Abs DC50. The method in brief:
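SMARCA2 protein remaining after 24 h exposure of A549 cells (top concentration 1000 nM, 3-fold dilutions) was measured by MSD electrochemiluminescence immunoassay of cell lysates. Results are given as binned DC50 and maximal degradation (Dmax) codes.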

For experiment [2], the target named is T1, SMARCA2. Nature of the experiment: SMARCA2 Western blot degradation in MV4-11 cells. Also on record: SMARCA2/SMARCA4 protein degradation selectivity in MV4-11 cells; endogenous in cells; host or cells: MV4-11. Conditions: for Dmax: MV4-11, MV4-11 cells, read-out: SMARCA2 MSD MV411 degradation 24 h: average Dmax %; for Dmax / DC50 / SMARCA2 MSD MV411 degradation 24 h: average Dmax %: 24 h; for DC50 / Selectivity in MV411 / SMARCA2 MSD MV411 degradation 24 h: average Dmax %: MV4-11 cells; for DC50: read-out: SMARCA2 MSD MV411 degradation 24 h: Mean external-Abs DC50; for Selectivity in MV411: SMARCA2/4 selectivity. On the technique in general: Immunoblotting shows a protein as a band on a membrane.

A further experiment concerns the target T2, SMARCA4 (Homo sapiens, UniProt P51532).
T2 construct: SMARCA2/SMARCA4 protein degradation selectivity in MV4-11 cells; endogenous in cells; host or cells: MV4-11
Kind of experiment: SMARCA4 Western blot degradation in MV4-11 cells. The following applies: for Dmax: MV4-11, MV4-11 cells, read-out: SMARCA4 MSD MV411 degradation 24 h: average Dmax %; for Dmax / DC50: 24 h; for DC50 / SMARCA4 MSD MV411 degradation 24 h: average Dmax %: MV4-11 cells; for DC50: read-out: SMARCA4 MSD MV411 degradation 24 h: Mean external-Abs DC50. The method, boiled down: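 Protein levels quantified by LI-COR Western blot (beta-actin loading control) in RIPA lysates of MV4-11 cells after 24 h compound exposure. Degradation reported as DC50, Dmax % at 24 h and SMARCA2 vs SMARCA4 selectivity, each binned into letter codes.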

T2 sequence (P51532 whole entry): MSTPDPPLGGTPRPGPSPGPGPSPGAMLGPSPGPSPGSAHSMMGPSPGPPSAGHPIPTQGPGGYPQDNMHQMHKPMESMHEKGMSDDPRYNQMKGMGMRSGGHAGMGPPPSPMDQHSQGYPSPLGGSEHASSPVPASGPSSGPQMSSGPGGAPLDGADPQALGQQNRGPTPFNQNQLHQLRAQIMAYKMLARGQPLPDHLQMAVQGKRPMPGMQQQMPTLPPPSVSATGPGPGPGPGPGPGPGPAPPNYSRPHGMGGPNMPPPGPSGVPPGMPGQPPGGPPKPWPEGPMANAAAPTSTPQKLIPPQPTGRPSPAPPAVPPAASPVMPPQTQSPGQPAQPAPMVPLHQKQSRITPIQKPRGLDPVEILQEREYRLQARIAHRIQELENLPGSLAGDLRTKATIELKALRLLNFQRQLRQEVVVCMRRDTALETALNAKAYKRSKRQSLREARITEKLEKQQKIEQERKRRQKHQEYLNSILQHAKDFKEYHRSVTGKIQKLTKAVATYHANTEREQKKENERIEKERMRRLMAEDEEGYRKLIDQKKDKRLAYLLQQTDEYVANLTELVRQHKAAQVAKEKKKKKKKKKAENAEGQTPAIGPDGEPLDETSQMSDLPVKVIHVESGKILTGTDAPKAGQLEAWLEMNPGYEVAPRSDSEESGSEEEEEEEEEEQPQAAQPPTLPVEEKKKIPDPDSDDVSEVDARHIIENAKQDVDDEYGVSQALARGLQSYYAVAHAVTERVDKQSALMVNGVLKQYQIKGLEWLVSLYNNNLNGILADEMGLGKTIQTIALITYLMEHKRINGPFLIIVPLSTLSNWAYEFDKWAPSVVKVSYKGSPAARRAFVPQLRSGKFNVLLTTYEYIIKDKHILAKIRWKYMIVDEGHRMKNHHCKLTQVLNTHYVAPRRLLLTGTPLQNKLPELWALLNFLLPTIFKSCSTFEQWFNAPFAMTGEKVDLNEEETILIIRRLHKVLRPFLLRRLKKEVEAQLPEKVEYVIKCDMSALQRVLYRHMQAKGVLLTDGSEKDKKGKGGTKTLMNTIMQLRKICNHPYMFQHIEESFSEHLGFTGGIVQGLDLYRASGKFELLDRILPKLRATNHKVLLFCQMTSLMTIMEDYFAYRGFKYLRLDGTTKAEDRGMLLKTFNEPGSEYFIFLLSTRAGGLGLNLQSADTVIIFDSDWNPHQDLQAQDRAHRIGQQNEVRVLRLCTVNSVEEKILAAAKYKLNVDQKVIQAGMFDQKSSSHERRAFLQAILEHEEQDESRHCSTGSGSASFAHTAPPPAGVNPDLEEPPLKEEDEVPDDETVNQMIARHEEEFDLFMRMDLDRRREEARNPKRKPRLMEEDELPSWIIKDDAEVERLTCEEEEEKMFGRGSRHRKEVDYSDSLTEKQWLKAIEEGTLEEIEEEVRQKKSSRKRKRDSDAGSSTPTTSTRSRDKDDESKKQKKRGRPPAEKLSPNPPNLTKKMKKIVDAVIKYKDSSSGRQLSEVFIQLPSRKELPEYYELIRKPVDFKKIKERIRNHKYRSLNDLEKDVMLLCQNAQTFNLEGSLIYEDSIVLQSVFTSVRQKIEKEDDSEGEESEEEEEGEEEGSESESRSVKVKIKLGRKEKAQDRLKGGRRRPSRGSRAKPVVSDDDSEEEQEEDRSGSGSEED
T1 sequence (P51531 whole entry): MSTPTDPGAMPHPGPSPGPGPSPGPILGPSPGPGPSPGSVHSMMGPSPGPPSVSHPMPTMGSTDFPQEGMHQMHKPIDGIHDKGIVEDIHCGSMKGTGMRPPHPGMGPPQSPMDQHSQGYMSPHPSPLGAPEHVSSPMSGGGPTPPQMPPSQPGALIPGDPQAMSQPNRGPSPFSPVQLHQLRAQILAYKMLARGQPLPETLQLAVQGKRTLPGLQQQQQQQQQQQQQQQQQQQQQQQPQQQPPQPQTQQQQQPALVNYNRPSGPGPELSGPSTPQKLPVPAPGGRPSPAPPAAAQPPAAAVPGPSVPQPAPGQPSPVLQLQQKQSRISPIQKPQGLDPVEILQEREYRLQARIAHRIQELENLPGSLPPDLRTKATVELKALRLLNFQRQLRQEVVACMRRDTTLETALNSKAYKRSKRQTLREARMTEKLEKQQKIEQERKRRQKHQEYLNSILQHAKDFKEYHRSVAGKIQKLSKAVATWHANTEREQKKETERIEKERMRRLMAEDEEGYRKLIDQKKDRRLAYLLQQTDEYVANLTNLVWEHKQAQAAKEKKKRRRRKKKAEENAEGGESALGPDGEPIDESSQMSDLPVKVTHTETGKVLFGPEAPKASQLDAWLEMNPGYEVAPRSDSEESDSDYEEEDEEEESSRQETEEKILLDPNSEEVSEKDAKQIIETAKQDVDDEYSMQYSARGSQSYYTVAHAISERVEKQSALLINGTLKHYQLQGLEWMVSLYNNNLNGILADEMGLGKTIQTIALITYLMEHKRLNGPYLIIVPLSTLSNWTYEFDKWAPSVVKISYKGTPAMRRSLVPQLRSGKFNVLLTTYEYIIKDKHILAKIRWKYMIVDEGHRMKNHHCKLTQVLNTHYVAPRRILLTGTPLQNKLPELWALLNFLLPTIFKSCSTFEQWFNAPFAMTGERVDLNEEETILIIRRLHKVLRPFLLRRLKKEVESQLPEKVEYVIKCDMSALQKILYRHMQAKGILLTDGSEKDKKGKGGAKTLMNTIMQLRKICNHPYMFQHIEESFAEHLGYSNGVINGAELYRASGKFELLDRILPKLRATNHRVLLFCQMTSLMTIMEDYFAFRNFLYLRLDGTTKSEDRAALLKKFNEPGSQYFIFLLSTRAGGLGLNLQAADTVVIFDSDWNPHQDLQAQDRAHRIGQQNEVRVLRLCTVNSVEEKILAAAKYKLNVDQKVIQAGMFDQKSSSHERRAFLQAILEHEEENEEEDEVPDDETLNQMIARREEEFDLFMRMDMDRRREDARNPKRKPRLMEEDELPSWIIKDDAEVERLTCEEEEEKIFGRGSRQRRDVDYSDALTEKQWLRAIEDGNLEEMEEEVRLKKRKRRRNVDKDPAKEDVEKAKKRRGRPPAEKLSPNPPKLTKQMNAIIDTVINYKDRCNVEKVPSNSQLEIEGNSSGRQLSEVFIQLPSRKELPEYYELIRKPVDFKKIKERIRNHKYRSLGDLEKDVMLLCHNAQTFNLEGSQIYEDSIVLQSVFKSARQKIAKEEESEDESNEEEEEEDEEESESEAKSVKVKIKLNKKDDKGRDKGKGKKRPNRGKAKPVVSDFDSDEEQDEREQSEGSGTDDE

For the compound `C#Cc1ccc(CNC(=O)[C@@H]2C[C@@H](O)CN2C(=O)[C@@H](NC(=O)[C@H]2CCC3(CC2)C[C@H](N2CCC(N4CCC(N5CCN6c7cc(-c8ccccc8O)nnc7NC[C@H]6C5)CC4)CC2)C3)C(C)(C)C)c(F)c1` (stereo partly shown) [I-176], the maximal degradation (Dmax) is greater than 90% on SMARCA2 [1], 50 to 70% on SMARCA2 [2] and less than 50% at SMARCA4. Also, the values for the DC50 at SMARCA2 [1], at SMARCA2 [2] and at SMARCA4 were greater than 100 nM, 10 to 100 nM and greater than 100 nM, respectively. Moreover, the “Selectivity in MV411” value at SMARCA2 [2] is given as “C (C (10-100 fold))”.

For `COc1cc(C(C(=O)N2C[C@H](O)C[C@H]2C(=O)NCC#Cc2ccccc2OCCCCN2CCC(c3cnc(N4CCN5c6cc(-c7ccccc7O)nnc6NC[C@H]5C4)nc3)CC2)C(C)C)on1` (stereo partly shown) [I-74], the Dmax on SMARCA2 [1], at SMARCA2 [2] and at SMARCA4 was greater than 90% throughout. Besides, the DC50 on SMARCA2 [1] was 10 to 50 nM; on SMARCA2 [2] it was less than 1 nM; at SMARCA4, 1 to 10 nM. Further, the “Selectivity in MV411” value on SMARCA2 [2] is listed as “C (C (10-100 fold))”.

With `C#Cc1ccc(CNC(=O)[C@@H]2C[C@@H](O)CN2C(=O)[C@@H](NC(=O)[C@H]2CCC3(CC2)C[C@H](N2CCC(N(C)CCN4CCN5c6cc(-c7ccccc7O)nnc6NC[C@H]5C4)CC2)C3)C(C)(C)C)cc1` (single isomer, unassigned) [I-247], at SMARCA2 [1], the “SMARCA2 MSD A549 degradation 24 h: Average Dmax %” value was “A (A (>90% degradation))” and the DC50 fell in the range of 50 to 100 nM. Also, on SMARCA2 [2], the “SMARCA2 MSD MV411 degradation 24 h: average Dmax %” value was “B (B (>70-90% degradation))”, the DC50 lay in the range of 1 to 10 nM and the “Selectivity in MV411” value is “C (C (10-100 fold))”. Moreover, on SMARCA4, the “SMARCA4 MSD MV411 degradation 24 h: average Dmax %” value is “C (C (50-70% degradation))” and the half-maximal degradation concentration (DC50) is greater than 100 nM.

Consider `C#Cc1ccc(CNC(=O)[C@@H]2C[C@@H](O)CN2C(=O)[C@@H](NC(=O)[C@H]2CC3(C2)C[C@H](N2CCC(N4CCC(N5CCN6c7cc(-c8ccccc8O)nnc7NC[C@H]6C5)CC4)CC2)C3)C(C)(C)C)c(Cl)c1` (single isomer, unassigned) [I-230], for which, on SMARCA2 [1], the “SMARCA2 MSD A549 degradation 24 h: Average Dmax %” value is recorded as “A (A (>90% degradation))” and the DC50 was 10 to 50 nM. Also, at SMARCA2 [2], the “SMARCA2 MSD MV411 degradation 24 h: average Dmax %” value was “B (B (>70-90% degradation))”, the DC50 fell in the range of 1 to 10 nM and the “Selectivity in MV411” value is “B (B (>100-500 fold))”. In addition, on SMARCA4, the “SMARCA4 MSD MV411 degradation 24 h: average Dmax %” value is recorded as “C (C (50-70% degradation))” and the DC50 was greater than 100 nM.

For `C#Cc1ccc(CNC(=O)[C@@H]2C[C@@H](O)CN2C(=O)[C@@H](NC(=O)[C@H]2CC3(C2)C[C@H](N2CCN(C(=O)CN4CCN5c6cc(-c7ccccc7O)nnc6NC[C@H]5C4)CC2)C3)C(C)(C)C)cc1` (stereo partly shown) [I-240], the results for the DC50 on SMARCA2 [1], at SMARCA2 [2] and on SMARCA4 were greater than 100 nM, 1 to 10 nM and 10 to 100 nM, respectively. Besides, at SMARCA2 [2], the “Selectivity in MV411” value is listed as “D (D (<10 fold))”.

On to `C#Cc1ccc([C@H](C)NC(=O)[C@@H]2C[C@@H](O)CN2C(=O)[C@@H](NC(=O)N2CC3(CC(N4CCC(N5CCC(N6CCc7[nH]c8nnc(-c9ccccc9O)cc8c7[C@H]6C)CC5)CC4)C3)C2)C(C)(C)C)cc1` [I-212], for which, at SMARCA2 [1], the Dmax is greater than 90% and the half-maximal degradation concentration (DC50) is greater than 100 nM. Also, at SMARCA2 [2], the Dmax lay in the range of 70 to 90%, the DC50 lay within 10 to 100 nM and the “Selectivity in MV411” value is “C (C (10-100 fold))”. On SMARCA4, the Dmax was less than 50% and the DC50 was greater than 100 nM.

As for `Cc1ncsc1-c1ccc(CNC(=O)[C@@H]2C[C@@H](O)CN2C(=O)[C@@H](NC(=O)[C@H]2CC[C@H](c3ccc(-c4cnc(N5CCN6c7cc(-c8ccccc8O)nnc7NC[C@H]6C5)nc4)cc3)CC2)C(C)(C)C)cc1` [I-85], on SMARCA2 [1], the Dmax was greater than 90% and the DC50 lay in the range of 50 to 100 nM. In addition, at SMARCA2 [2], the Dmax lay in the range of 70 to 90%, the DC50 was 10 to 100 nM and the “Selectivity in MV411” value is “C (C (10-100 fold))”. Besides, on SMARCA4, the Dmax is less than 50% and the DC50 is greater than 100 nM.

Regarding `CC#Cc1ccc(CNC(=O)[C@@H]2C[C@@H](O)CN2C(=O)[C@@H](NC(=O)[C@H]2CCC3(CC2)C[C@H](N2CCC(c4cnc(N5CCN6c7cc(-c8ccccc8O)nnc7NC[C@H]6C5)nc4)CC2)C3)C(C)(C)C)cc1` (single isomer, unassigned) [I-103], the Dmax at SMARCA2 [1] is greater than 90%; at SMARCA2 [2], 50 to 70%; on SMARCA4 it was 70 to 90%. Moreover, the values for the DC50 on SMARCA2 [1], at SMARCA2 [2] and at SMARCA4 were 50 to 100 nM, 1 to 10 nM and greater than 100 nM, respectively. Further, the “Selectivity in MV411” value on SMARCA2 [2] is on record as “C (C (10-100 fold))”.

Take `C#Cc1ccc(C2(NC(=O)[C@@H]3C[C@@H](O)CN3C(=O)[C@@H](NC(=O)N3CC4(CC(N5CCC(N6CCC(N7CCc8[nH]c9nnc(-c%10ccccc%10O)cc9c8[C@H]7C)CC6)CC5)C4)C3)C(C)(C)C)CC2)cc1` [I-210]: the Dmax on SMARCA2 [1] was greater than 90%; at SMARCA2 [2] it was 50 to 70%; on SMARCA4, less than 50%. Moreover, the DC50 at SMARCA2 [1] was greater than 100 nM; on SMARCA2 [2], 10 to 100 nM; on SMARCA4 it was greater than 100 nM. At SMARCA2 [2], the “Selectivity in MV411” value was “C (C (10-100 fold))”.

Turning to `C#Cc1ccc([C@H](C)NC(=O)[C@@H]2C[C@@H](O)CN2C(=O)[C@@H](NC(=O)[C@H]2CC3(C2)C[C@H](N2CCC(N4CCC(N5CCN6c7cc(-c8ccccc8O)nnc7NC[C@H]6C5)CC4)CC2)C3)C(C)(C)C)cc1` (single isomer, unassigned) [I-226], on SMARCA2 [1], the “SMARCA2 MSD A549 degradation 24 h: Average Dmax %” value is recorded as “A (A (>90% degradation))” and the DC50 is greater than 100 nM. On SMARCA2 [2], the “SMARCA2 MSD MV411 degradation 24 h: average Dmax %” value was “B (B (>70-90% degradation))”, the half-maximal degradation concentration (DC50) fell in the range of 10 to 100 nM and the “Selectivity in MV411” value is given as “B (B (>100-500 fold))”. At SMARCA4, the “SMARCA4 MSD MV411 degradation 24 h: average Dmax %” value is recorded as “D (D (<50% degradation))” and the DC50 is greater than 100 nM.

Regarding `C#Cc1ccc(CNC(=O)[C@@H]2C[C@@H](O)CN2C(=O)[C@@H](NC(=O)N2CC3(CC(N4CCC(N5CCc6[nH]c7nnc(-c8ccccc8O)cc7c6[C@H]5C)CC4)C3)C2)C(C)(C)C)cc1` [I-191], the Dmax on SMARCA2 [1] was greater than 90%; at SMARCA2 [2], 70 to 90%; at SMARCA4, 70 to 90%. Also, the DC50 at SMARCA2 [1] was greater than 100 nM; on SMARCA2 [2], 1 to 10 nM; at SMARCA4, greater than 100 nM. Further, the “Selectivity in MV411” value at SMARCA2 [2] is recorded as “C (C (10-100 fold))”.

Turning to `C#Cc1ccc(CNC(=O)[C@@H]2C[C@@H](O)CN2C(=O)[C@@H](NC(=O)N2CCN(CC3CCN([C@H]4CC[C@@H](N5CCN6c7cc(-c8ccccc8O)nnc7NC[C@H]6C5)CC4)CC3)CC2)C(C)(C)C)cc1` [I-216], on SMARCA2 [1], the Dmax lay within 70 to 90% and the DC50 was greater than 100 nM. Further, at SMARCA2 [2], the Dmax was less than 50%, the DC50 is greater than 100 nM and the “Selectivity in MV411” value is reported as “C (C (10-100 fold))”. Further, at SMARCA4, the Dmax is less than 50% and the DC50 was greater than 100 nM.

For the compound `C#Cc1ccc(CNC(=O)[C@@H]2C[C@@H](O)CN2C(=O)[C@@H](N(CCN(C)C)C(=O)N2CC3(CC(N4CCC(c5cnc(N6CCc7[nH]c8nnc(-c9ccccc9O)cc8c7[C@H]6C)nc5)CC4)C3)C2)C(C)(C)C)cc1` [I-141], on SMARCA2 [1], the Dmax was less than 50% and the DC50 was greater than 100 nM. In addition, at SMARCA2 [2], the Dmax is less than 50%, the DC50 was greater than 100 nM and the “Selectivity in MV411” value was “C (C (10-100 fold))”. Moreover, at SMARCA4, the Dmax is less than 50% and the DC50 is greater than 100 nM.

One may read the Dmax as the largest share of the target that was removed. As usually defined, the DC50 is the concentration at which degradation of the target reaches its halfway point.
